How the values were obtained:
L-DTP (EPI) cells = assay: CCK8 cell survival and CI value (Calcusyn) in drug-tolerant L-DTP (EPI) cells; format: cell-based; conditions: L-DTP (EPI) cells produced after continuous EPI for 9 days
Excerpt: (§1) Finally, Calcusyn software was used for calculating a CI value in L-DTP cells.

LNCaP cells = assay: Production of DTP/DTEP cells from LNCaP cells by EPI and Enza, cell counting; format: cell-based; conditions: 1×10^6 LNCaP cells seeded, one value given for EPI and Enza; for number of LNCaP-DTP cells as percentage of the initial seed cells: 9 days drug treatment; for number of LNCaP-DTEP cells as percentage of the initial seed cells: 33 days drug treatment
Excerpt: In the period, for replacement, a fresh drug-containing medium was used every three days for culture, some cells (DTP cells) were collected for subsequent experiments after 9 days, and the remaining cells continued to be treated with drugs. In the period, for replacement, a fresh drug-containing medium was used every three days for culture, and DTEP cells were collected after 33 days for subsequent experiments. After the DTP and DTEP cells were produced, the cells were digested and counted to calculate the percentage of the cells in 1×10^6 cells. The collected NC, DTP and DTEP cells were used for subsequent Western Blot experiments: the three groups of cells were subjected to cell lysis, protein extraction and quantification, SDS-PAGE gel electrophoresis, membrane transfer, blocking, primary antibody incubation, secondary antibody incubation and development, then, the expression changes of AR-FL and its related target proteins and AR-Vs and its related target proteins were observed, and the expression changes of cell cycle-related proteins were observed. Flow cytometry: dead cells were stained by a PI-stained cycle kit, and cell cycle changes were determined by a flow cytometry.

PRDX5 = PRDX5 immunohistochemistry of prostate tissue slices, C-MYC-over-expressed prostate cancer mouse model; format: in vivo, mice; conditions: 30 d after drug tolerance relapse, immunohistochemical positive cells
Excerpt: A C-MYC (Hi-Myc)-over-expressed spontaneous prostate cancer mouse model was constructed, and at 4 months, the mice developed mPIN/Cancer transition. […] Then, the necks of some mice were severed, and the prostate cancers of the mice were taken, photographed and weighed. […] Then, the necks of the mice were severed, and the prostate cancers of the mice were taken, photographed, weighed and subjected to experiments including immunohistochemistry.

[1] = tested on: C-MYC-over-expressed prostate cancer mouse model; assay: C-MYC (Hi-Myc)-over-expressed spontaneous prostate cancer mouse model, prostate weight and HE staining; format: in vivo, mice
Description: A C-MYC (Hi-Myc)-over-expressed spontaneous prostate cancer mouse model was constructed, and at 4 months, the mice developed mPIN/Cancer transition. At the moment, the mice were randomly divided into an NC control group (intragastrical administration with solvents) and an Enza administration group. Then, intragastrical administration was performed every three days, and Enza administration was performed at 10 mg/Kg for a total of 30 days. Then, the necks of some mice were severed, and the prostate cancers of the mice were taken, photographed and weighed. […] Then, mice (mice aged 6 months) were randomly divided into: an NC control group (intragastrical administration with solvents all the time), an Enza single-drug group 1, an Enza single-drug group 2, a Stac single-drug group 1, a Stac single-drug group 2 and an Enza and Stac combination group, the corresponding administration treatment was performed, and all mice were intragastrically administered once every three days. The dosage of Enza in the Enza single-drug group 1 was kept at 10 mg/Kg each time, the dosage of Enza in the Enza single-drug group 2 was kept at 90 mg/Kg each time, the dosage of Stac in the Stac single-drug group 1 was kept at 80 mg/Kg each time, the dosage of Stac in the Stac single-drug group 2 was kept at 90 mg/Kg each time, the dosages of Enza and Stac in the Enza and Stac combination group were kept at 10 mg/Kg and 80 mg/Kg each time, and the administration was performed for a total of 30 days. Then, the necks of the mice were severed, and the prostate cancers of the mice were taken, photographed, weighed and subjected to experiments including immunohistochemistry.

L-DTP (Enza) cells = assay: CCK8 cell survival and CI value (Calcusyn) in drug-tolerant L-DTP (Enza) cells; format: cell-based; conditions: L-DTP (Enza) cells produced after continuous Enza for 9 days
Excerpt: as §1

AR = AR immunohistochemistry of prostate tissue slices, C-MYC-over-expressed prostate cancer mouse model; format: in vivo, mice; conditions: 30 d after drug tolerance relapse, immunohistochemical positive cells
Excerpt: Then, the necks of some mice were severed, and the prostate cancers of the mice were taken, photographed and weighed. […] Then, the necks of the mice were severed, and the prostate cancers of the mice were taken, photographed, weighed and subjected to experiments including immunohistochemistry.

Structure (SMILES) | inhibition rate (L-DTP (EPI) cells) | number of LNCaP-DTP cells as percentage of the initial seed cells (LNCaP cells) [%] | number of LNCaP-DTEP cells as percentage of the initial seed cells (LNCaP cells) [%] | PRDX5 expression/% (PRDX5; Enza 10 mg/Kg) [%] | PRDX5 expression/% (PRDX5; Enza 90 mg/Kg) [%] | prostate weight compared with NC control group ([1]; Enza 10 mg/Kg intragastric every three days, 30 days, from 4 months of age) | Average of prostate weights of mice ([1]; Enza 10 mg/Kg, 30 d of administration after drug tolerance relapse, intragastric every three days) [mg] | Average of prostate weights of mice ([1]; Enza 90 mg/Kg, 30 d of administration after drug tolerance relapse, intragastric every three days) [mg] | Average of prostate weights of mice ([1]; continued Enza administration, after 90 days, drug tolerance relapse (NC control 98.2 mg)) [mg] | Average of prostate weights of mice ([1]; continuous Enza 10 mg/Kg intragastric every three days, 30 days (NC control 88.7 mg)) [mg] | inhibition rate (L-DTP (Enza) cells) | AR expression/% (AR; Stac 80 mg/Kg) [%] | AR expression/% (AR; Stac 90 mg/Kg) [%] | PRDX5 expression/% (PRDX5; Stac 80 mg/Kg) [%] | PRDX5 expression/% (PRDX5; Stac 90 mg/Kg) [%] | Average of prostate weights of mice ([1]; Stac 80 mg/Kg, 30 d of administration after drug tolerance relapse, intragastric every three days) [mg] | Average of prostate weights of mice ([1]; Stac 90 mg/Kg, 30 d of administration after drug tolerance relapse, intragastric every three days) [mg] | treatment effect of single use after drug tolerance (prostate weight) ([1]; single use of Stac compared with single use of Enza, after drug tolerance relapse)
CC(C)(c1ccc(OCC(O)CO)cc1)c1ccc(OCC(O)CCl)cc1 (stereo not drawn) [EPI, EPI-001] | no obvious inhibiting effect | 103.11 | 110.92 |  |  |  |  |  |  |  |  |  |  |  |  |  |  | 
CNC(=O)c1ccc(N2C(=S)N(c3ccc(C#N)c(C(F)(F)F)c3)C(=O)C2(C)C)cc1F [Enza, Enzalutamide] |  | 103.11 | 110.92 | 78.4 | 80.0 | reduced by half | 54.42 | 53.83 | 77.1 | 43.9 | no obvious inhibiting effect |  |  |  |  |  |  | 
OC[C@H]1O[C@H](OC[C@H]2O[C@H](OC[C@H]3O[C@H](O[C@]4(CO)O[C@H](CO)[C@@H](O)[C@@H]4O)[C@H](O)[C@@H](O)[C@@H]3O)[C@H](O)[C@@H](O)[C@H]2O)[C@H](O)[C@@H](O)[C@H]1O [Stac, Stachyose] | 67.48% |  |  |  |  |  |  |  |  |  | 62.47% | 61.5 | 57.4 | 68.2 | 60.9 | 50.86 | 47.50 | better than that of the single use of Enza

Reference: US12685742B2, “Application of stachyose in preparation of drug for treating castration-resistant prostate cancer” (priority 2021, dated 2026)
